# Measured values reported in patent US20110143948A1, “MOLECULAR SIGNATURES AND BIOMARKERS ASSOCIATED WITH MELANOMA AND METHODS OF USE THEREOF” (priority 2008, published 2011).
# Test system: ncRNAs (SEQ ID NO 28-89)
# Assay: ncRNA arrays of melanocytes, keratinocytes, normal skin, melanoma cell lines and patient samples
# Parameters: species or system human
# Conditions: for ncRNA array expression, patient 2: melanoma patient 2 sample compared to normal skin; for ncRNA array expression, patient 3: melanoma patient 3 sample compared to normal skin; for ncRNA array expression, patient 4: melanoma patient 4 sample compared to normal skin; for ncRNA array expression, patient 5: melanoma patient 5 sample compared to normal skin; for ncRNA array expression, patient 6: melanoma patient 6 sample compared to normal skin; for ncRNA array expression, patient 7: melanoma patient 7 sample compared to normal skin; for ncRNA array expression, patient 8: melanoma patient 8 sample compared to normal skin; for ncRNA array expression, patient 9: melanoma patient 9 sample compared to normal skin; for ncRNA array expression, patient 10: melanoma patient 10 sample compared to normal skin; for ncRNA array expression, patient 19: melanoma patient 19 sample compared to normal skin; for ncRNA array expression, patient 20: melanoma patient 20 sample compared to normal skin; for ncRNA array expression, patient 21: melanoma patient 21 sample compared to normal skin; for ncRNA array expression, patient 22: melanoma patient 22 sample compared to normal skin; for ncRNA array expression, patient 23: melanoma patient 23 sample compared to normal skin; for ncRNA array expression, patient 24: melanoma patient 24 sample compared to normal skin; for ncRNA array expression, patient 25: melanoma patient 25 sample compared to normal skin; for ncRNA array expression, patient 26: melanoma patient 26 sample compared to normal skin; for ncRNA array expression, patient 27: melanoma patient 27 sample compared to normal skin; for ncRNA array expression, patient 28: melanoma patient 28 sample compared to normal skin; for ncRNA array expression, patient 29: melanoma patient 29 sample compared to normal skin; for ncRNA array expression, patient 30: melanoma patient 30 sample compared to normal skin
# Procedure, shortened: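 Differential ncRNA expression was defined against melanocytes or normal skin after subtracting keratinocyte-specific signals, with confirmation by qRT-PCR and Northern blot. Samples were melanoma cell lines, patient tumours, melanocytes, keratinocytes and normal skin, hybridised to a >10,000-probe (>200 nt) ncRNA array that also carries RefSeq mRNA probes.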
Substance,"ncRNA array expression, patient 2","ncRNA array expression, patient 3","ncRNA array expression, patient 4","ncRNA array expression, patient 5","ncRNA array expression, patient 6","ncRNA array expression, patient 7","ncRNA array expression, patient 8","ncRNA array expression, patient 9","ncRNA array expression, patient 10","ncRNA array expression, patient 19","ncRNA array expression, patient 20","ncRNA array expression, patient 21","ncRNA array expression, patient 22","ncRNA array expression, patient 23","ncRNA array expression, patient 24","ncRNA array expression, patient 25","ncRNA array expression, patient 26","ncRNA array expression, patient 27","ncRNA array expression, patient 28","ncRNA array expression, patient 29",further results
"SEQ ID NO 45 (ATTTAGAGAACATTTAAATCTGTAAGGAAGAAAATAATAACGACTCACAATTACATCATT; listed as DNA, chemistry not given here; listed as Homo sapiens)",−1.688,−1.56,−1.5912,−1.519,−0.7528,−0.8782,−2.042,−1.8261,1.065,−0.8583,−1.797,−1.759,−1.25,0.2281,−1.588,−2.096,−2.174,−1.86,−2.069,−1.422,"ncRNA array expression, patient 30: 0.8792"
"SEQ ID NO 46 (CTATTGGAGTGCATATAAATTCTTGATAGCACCAGTTCTCAAATATGAGGTGTTAAAAAC; listed as DNA, chemistry not given here; listed as Homo sapiens)",0.198,0.6718,1.187,0.9853,0.04368,0.7142,1.688,5.175,1.916,2.172,0.395,0.7531,−0.4275,0.6081,0.8675,1.428,2.919,1.824,1.253,2.278,"ncRNA array expression, patient 30: 0.4452"
"SEQ ID NO 47 (GTATTTGTAATATTTGATTTGCTTTTAGCAGAGAAAACAATAAAAGAATCCAGGAAAAGT; listed as DNA, chemistry not given here; listed as Homo sapiens)",−2.442,−2.494,−2.265,−2.234,−2.076,−2.368,−1.927,−2.484,−1.685,−2.485,−2.495,−2.249,−2.41,−2.401,−2.489,−2.453,−2.486,−2.489,−2.481,−2.234,"ncRNA array expression, patient 30: −1.529"
"SEQ ID NO 48 (ACTTATATTCAGAGCATGTGGATTGGGACTCTGAAGAACAACTTTATGGTGGACACCTTC; listed as DNA, chemistry not given here; listed as Homo sapiens)",0.9515,3.672,3.353,0.2362,−0.1733,0.648,3.309,−0.2759,2.286,3.38,1.713,1.144,−0.4681,−0.4589,2.492,4.7,2.981,4.712,0.2102,0.1927,"ncRNA array expression, patient 30: −0.334"
"SEQ ID NO 49 (CGATGGCTTGTCATTGTCCCCTGTCCTGGAACAATAAAGCAAGTGCCTTGTGGTCTCACT; listed as DNA, chemistry not given here; listed as Homo sapiens)",−3.131,−1.901,−2.3226,−1.9036,0.7986,−1.477,−1.974,−2.214,−4.429,−2.094,−2.123,−2.207,−2.118,−1.787,−1.642,−2.472,−3.037,−2.447,−2.621,−2.39,"ncRNA array expression, patient 30: −0.9259"
"SEQ ID NO 50 (GTTATTATAACCAATGCAGACTTTAAAATCCCACCTGGACATCGGGTGAGAGGAGGAGGG; listed as DNA, chemistry not given here; listed as Homo sapiens)",−2.415,−1.962,−2.102,−1.782,−1.159,−1.978,−1.68,−2.03,−1.537,−0.5347,−1.776,−1.854,−1.427,−0.1575,−1.434,−1.804,−1.952,−1.707,−1.738,−2.317,"ncRNA array expression, patient 30: −0.3312"
"SEQ ID NO 51 (ATGTATTTTAGGTAATAAGATTTTTATCAATTGTGTCTTTTTCTTTCTTTGCTTTCTATA; listed as DNA, chemistry not given here; listed as Homo sapiens)",0.8922,2.683,2.264,1.042,1.115,1.14,2.048,0.7789,0.8572,0.7228,1.113,1.298,0.5543,0.1918,1.761,2.552,1.145,1.166,0.879,0.7193,"ncRNA array expression, patient 30: −0.4325"
